In PubChem BioAssay (NCI):
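A five-concentration, 48-hour dose response in 96-well plates underlies each endpoint, interpolated linearly between surrounding concentrations. The concentration for 50% growth inhibition is given as GI50. TGI: concentration producing complete growth inhibition.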

Legend:
Assay in all cases: DTP human tumour cell line panel, 48 h
CCRF-CEM leukemia = tested on: CCRF-CEM leukemia
MALME-3M melanoma = tested on: MALME-3M melanoma
HCT-15 colon = tested on: HCT-15 colon
786-0 renal = tested on: 786-0 renal
MCF7 breast = tested on: MCF7 breast
MDA-MB-435 = tested on: MDA-MB-435
IGROV1 ovarian = tested on: IGROV1 ovarian
HCT-116 colon = tested on: HCT-116 colon
SW-620 colon = tested on: SW-620 colon
HS 578T breast = tested on: HS 578T breast
RXF 393 renal = tested on: RXF 393 renal
EKVX NSCLC = tested on: EKVX NSCLC
OVCAR-3 ovarian = tested on: OVCAR-3 ovarian
HT29 colon = tested on: HT29 colon
SNB-75 CNS = tested on: SNB-75 CNS
NCI/ADR-RES ovarian = tested on: NCI/ADR-RES ovarian
NCI-H23 lung = tested on: NCI-H23 lung
NCI-H460 lung = tested on: NCI-H460 lung
UO-31 renal = tested on: UO-31 renal
RPMI-8226 leukemia = tested on: RPMI-8226 leukemia
SK-MEL-28 melanoma = tested on: SK-MEL-28 melanoma
SK-MEL-5 melanoma = tested on: SK-MEL-5 melanoma
NCI-H226 lung = tested on: NCI-H226 lung
COLO 205 colon = tested on: COLO 205 colon
MDA-MB-231 breast = tested on: MDA-MB-231 breast
OVCAR-8 ovarian = tested on: OVCAR-8 ovarian
HCC-2998 colon = tested on: HCC-2998 colon
HL-60(TB) leukemia = tested on: HL-60(TB) leukemia
SF-539 CNS = tested on: SF-539 CNS
T-47D breast = tested on: T-47D breast
HOP-62 NSCLC = tested on: HOP-62 NSCLC
SR leukemia = tested on: SR leukemia
SF-295 CNS = tested on: SF-295 CNS
M14 melanoma = tested on: M14 melanoma
K-562 leukemia = tested on: K-562 leukemia
SK-OV-3 ovarian = tested on: SK-OV-3 ovarian
MOLT-4 leukemia = tested on: MOLT-4 leukemia
NCI-H522 lung = tested on: NCI-H522 lung
PC-3 prostate = tested on: PC-3 prostate
A549 NSCLC = tested on: A549 NSCLC
OVCAR-5 ovarian = tested on: OVCAR-5 ovarian
SK-MEL-2 melanoma = tested on: SK-MEL-2 melanoma
UACC-257 melanoma = tested on: UACC-257 melanoma
TK-10 renal = tested on: TK-10 renal
HOP-92 NSCLC = tested on: HOP-92 NSCLC
ACHN renal = tested on: ACHN renal
SF-268 CNS = tested on: SF-268 CNS
A498 renal = tested on: A498 renal
SN12C renal = tested on: SN12C renal
LOX IMVI melanoma = tested on: LOX IMVI melanoma
DU-145 prostate = tested on: DU-145 prostate
BT-549 breast = tested on: BT-549 breast
OVCAR-4 ovarian = tested on: OVCAR-4 ovarian
SNB-19 CNS = tested on: SNB-19 CNS
KM12 colon = tested on: KM12 colon
U251 CNS = tested on: U251 CNS
UACC-62 melanoma = tested on: UACC-62 melanoma
CAKI-1 renal = tested on: CAKI-1 renal

Cc1cc(N(CCCNc2ccnc3cc(Cl)ccc23)Cc2ccco2)nc(N2CCN(C)CC2)n1 showed a GI50 (CCRF-CEM leukemia) of 2.84 µM, a TGI (CCRF-CEM leukemia) of 10.2 µM and a GI50 (MALME-3M melanoma) of 1.83 µM. The TGI (MALME-3M melanoma) was 3.5 µM, the GI50 (HCT-15 colon) was 2.07 µM and the TGI (HCT-15 colon) was 10.5 µM. The GI50 (786-0 renal) was 1.83 µM, the TGI (786-0 renal) was 3.63 µM and the GI50 (MCF7 breast) was 3.01 µM. For the same compound, the TGI (MCF7 breast) was 13.9 µM, the GI50 (MDA-MB-435) was 1.69 µM and the TGI (MDA-MB-435) was 3.23 µM. The GI50 (IGROV1 ovarian) was 2.39 µM, the TGI (IGROV1 ovarian) was 12.3 µM and the GI50 (HCT-116 colon) was 2.48 µM. For the same compound, the TGI (HCT-116 colon) was 10.7 µM, the GI50 (SW-620 colon) was 2.82 µM and the TGI (SW-620 colon) was 12.2 µM. The GI50 (HS 578T breast) was 2.43 µM, the TGI (HS 578T breast) was 7.85 µM and the GI50 (RXF 393 renal) was 1.79 µM. The TGI (RXF 393 renal) was 3.55 µM, the GI50 (EKVX NSCLC) was 4.99 µM and the TGI (EKVX NSCLC) was 22 µM. For the same compound, the GI50 (OVCAR-3 ovarian) was 2.87 µM, the TGI (OVCAR-3 ovarian) was 12.1 µM and the GI50 (HT29 colon) was 2.73 µM. For the same compound, the TGI (HT29 colon) was 11 µM, the GI50 (SNB-75 CNS) was 1.29 µM and the TGI (SNB-75 CNS) was 5.56 µM. For the same compound, the GI50 (NCI/ADR-RES ovarian) was 4.13 µM, the TGI (NCI/ADR-RES ovarian) was 18.8 µM and the GI50 (NCI-H23 lung) was 5.52 µM. For the same compound, the TGI (NCI-H23 lung) was 22.1 µM, the GI50 (NCI-H460 lung) was 3.12 µM and the TGI (NCI-H460 lung) was 11.4 µM. For the same compound, the GI50 (UO-31 renal) was 2.02 µM, the TGI (UO-31 renal) was 5.33 µM and the GI50 (RPMI-8226 leukemia) was 2.09 µM. It also gave a TGI (RPMI-8226 leukemia) of 5.15 µM, a GI50 (SK-MEL-28 melanoma) of 1.74 µM and a TGI (SK-MEL-28 melanoma) of 3.41 µM. It also gave a GI50 (SK-MEL-5 melanoma) of 1.75 µM, a TGI (SK-MEL-5 melanoma) of 3.17 µM and a GI50 (NCI-H226 lung) of 12.4 µM. The TGI (NCI-H226 lung) was 24.8 µM, the GI50 (COLO 205 colon) was 1.89 µM and the TGI (COLO 205 colon) was 3.94 µM. For the same compound, the GI50 (MDA-MB-231 breast) was 2.63 µM, the TGI (MDA-MB-231 breast) was 8.72 µM and the GI50 (OVCAR-8 ovarian) was 3.87 µM. The TGI (OVCAR-8 ovarian) was 16.8 µM, the GI50 (HCC-2998 colon) was 1.98 µM and the TGI (HCC-2998 colon) was 4.88 µM. The GI50 (HL-60(TB) leukemia) was 2.06 µM, the TGI (HL-60(TB) leukemia) was 4.37 µM and the GI50 (SF-539 CNS) was 1.68 µM. The TGI (SF-539 CNS) was 3.23 µM, the GI50 (T-47D breast) was 2.15 µM and the TGI (T-47D breast) was 5.68 µM. It also gave a GI50 (HOP-62 NSCLC) of 3.65 µM, a TGI (HOP-62 NSCLC) of 14.3 µM and a GI50 (SR leukemia) of 2.08 µM. For the same compound, the TGI (SR leukemia) was 5.62 µM, the GI50 (SF-295 CNS) was 1.87 µM and the TGI (SF-295 CNS) was 3.84 µM. For the same compound, the GI50 (M14 melanoma) was 1.85 µM, the TGI (M14 melanoma) was 3.44 µM and the GI50 (K-562 leukemia) was 2.07 µM. The TGI (K-562 leukemia) was 10.4 µM, the GI50 (SK-OV-3 ovarian) was 5.99 µM and the TGI (SK-OV-3 ovarian) was 31.2 µM. The GI50 (MOLT-4 leukemia) was 2.74 µM, the TGI (MOLT-4 leukemia) was 14 µM and the GI50 (NCI-H522 lung) was 3.62 µM. For the same compound, the TGI (NCI-H522 lung) was 14.4 µM, the GI50 (PC-3 prostate) was 4.12 µM and the TGI (PC-3 prostate) was 17.3 µM. It also gave a GI50 (A549 NSCLC) of 4.34 µM, a TGI (A549 NSCLC) of 15.4 µM and a GI50 (OVCAR-5 ovarian) of 6.08 µM. It also gave a TGI (OVCAR-5 ovarian) of 21.8 µM, a GI50 (SK-MEL-2 melanoma) of 1.95 µM and a TGI (SK-MEL-2 melanoma) of 4.21 µM. The GI50 (UACC-257 melanoma) was 1.97 µM, the TGI (UACC-257 melanoma) was 3.8 µM and the GI50 (TK-10 renal) was 2.08 µM. For the same compound, the TGI (TK-10 renal) was 4.82 µM, the GI50 (HOP-92 NSCLC) was 1.92 µM and the TGI (HOP-92 NSCLC) was 4.99 µM. The GI50 (ACHN renal) was 2.46 µM, the TGI (ACHN renal) was 6.51 µM and the GI50 (SF-268 CNS) was 2.9 µM. The TGI (SF-268 CNS) was 15.7 µM, the GI50 (A498 renal) was 9.15 µM and the TGI (A498 renal) was 45.5 µM. It also gave a GI50 (SN12C renal) of 4.24 µM, a TGI (SN12C renal) of 17 µM and a GI50 (LOX IMVI melanoma) of 1.69 µM. The TGI (LOX IMVI melanoma) was 3.53 µM, the GI50 (DU-145 prostate) was 5.69 µM and the TGI (DU-145 prostate) was 18.8 µM. The GI50 (BT-549 breast) was 2.07 µM, the TGI (BT-549 breast) was 6.05 µM and the GI50 (OVCAR-4 ovarian) was 3.59 µM. The TGI (OVCAR-4 ovarian) was 19.6 µM, the GI50 (SNB-19 CNS) was 5 µM and the TGI (SNB-19 CNS) was 16.9 µM. For the same compound, the GI50 (KM12 colon) was 3.73 µM, the TGI (KM12 colon) was 16.7 µM and the GI50 (U251 CNS) was 2.67 µM. It also gave a TGI (U251 CNS) of 6.92 µM, a GI50 (UACC-62 melanoma) of 1.99 µM and a TGI (UACC-62 melanoma) of 3.74 µM.

Compound O=C(/C=C/c1ccc(Oc2cc(C(=O)/C=C/c3ccc(O)cc3)c(O)cc2O)cc1)c1ccc(O)cc1O has a TGI (CCRF-CEM leukemia) of 10.8 µM, a TGI (MALME-3M melanoma) of 26.6 µM and a TGI (HCT-15 colon) of 19.4 µM. The TGI (786-0 renal) was 16 µM, the TGI (MCF7 breast) was 19.5 µM and the TGI (MDA-MB-435) was 17.6 µM. It also gave a TGI (IGROV1 ovarian) of 11.3 µM, a TGI (HCT-116 colon) of 4.57 µM and a TGI (SW-620 colon) of 19.8 µM. For the same compound, the TGI (HS 578T breast) was > 100 µM, the TGI (RXF 393 renal) was 24.8 µM and the TGI (EKVX NSCLC) was 27.9 µM. For the same compound, the TGI (OVCAR-3 ovarian) was 11.9 µM, the TGI (HT29 colon) was 3.57 µM and the TGI (SNB-75 CNS) was 9.68 µM. The TGI (NCI/ADR-RES ovarian) was 22.7 µM, the TGI (NCI-H23 lung) was 28.6 µM and the TGI (NCI-H460 lung) was 29.8 µM. The TGI (UO-31 renal) was > 100 µM, the TGI (RPMI-8226 leukemia) was 8.09 µM and the TGI (SK-MEL-28 melanoma) was 7.07 µM. The TGI (SK-MEL-5 melanoma) was 17.1 µM, the TGI (COLO 205 colon) was 6.08 µM and the TGI (MDA-MB-231 breast) was > 100 µM. The TGI (OVCAR-8 ovarian) was 6.09 µM, the TGI (HL-60(TB) leukemia) was > 100 µM and the TGI (SF-539 CNS) was 6.1 µM. For the same compound, the TGI (T-47D breast) was 27.4 µM, the TGI (HOP-62 NSCLC) was 15.5 µM and the TGI (SR leukemia) was > 100 µM. It also gave a TGI (SF-295 CNS) of 18.5 µM, a TGI (M14 melanoma) of 24.1 µM and a TGI (K-562 leukemia) of 16.6 µM. The TGI (SK-OV-3 ovarian) was 8.88 µM, the TGI (MOLT-4 leukemia) was > 100 µM and the TGI (NCI-H522 lung) was 19.1 µM. For the same compound, the TGI (PC-3 prostate) was 24.9 µM, the TGI (A549 NSCLC) was 99.5 µM and the TGI (OVCAR-5 ovarian) was 16.7 µM. For the same compound, the TGI (SK-MEL-2 melanoma) was 28.2 µM, the TGI (UACC-257 melanoma) was 28.4 µM and the TGI (TK-10 renal) was 11.6 µM. It also gave a TGI (HOP-92 NSCLC) of 55.3 µM, a TGI (ACHN renal) of 22.2 µM and a TGI (SF-268 CNS) of 28.3 µM. For the same compound, the TGI (A498 renal) was 14.1 µM, the TGI (SN12C renal) was 17 µM and the TGI (LOX IMVI melanoma) was 28.6 µM. The TGI (DU-145 prostate) was 12.8 µM, the TGI (BT-549 breast) was 39.3 µM and the TGI (OVCAR-4 ovarian) was 28.3 µM. The TGI (SNB-19 CNS) was 30.9 µM, the TGI (KM12 colon) was 6.64 µM and the TGI (U251 CNS) was 20.7 µM. It also gave a TGI (UACC-62 melanoma) of 13 µM and a TGI (CAKI-1 renal) of 18.1 µM.
